Test results as given in patent US6472526B1, “Imidazole derivatives having an inhibitory activity for farnesyl transferase and process for preparation thereof” (LG Chemical Ltd., priority 1997, dated 2002).
pIC50: −log10 of the molar value.

How the values were obtained:
Ras farnesyl transferase [1] = molecular target: T1, Ras farnesyl transferase (Rattus norvegicus, UniProt Q02293+Q04631); experiment: In vivo (cellular) inhibitory activity for Ras farnesyl transferase, Rat2 cell line which expresses C-Harvey-Ras protein; format: cell-based
T1 construct: endogenous in cells; host or cells: Rat2 fibroblasts transformed with H-Ras or with an H-Ras/K-Ras C-terminus fusion
Procedure, shortened: (§1)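 Transformed Rat2 fibroblasts (H-Ras or H-Ras/K-Ras polybasic-tail fusion) treated with compound in 1% DMSO; after 4 h labelled with [35S]methionine 150 μCi/ml for 20 h. Lysates immunoprecipitated with anti-Ras Y13-259, resolved by 13.5% SDS-PAGE and autoradiography; CIC50 = concentration inhibiting 50% of Ras farnesylation from band intensities.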

Ras farnesyl transferase [2] = molecular target: T2, Ras farnesyl transferase (Homo sapiens, UniProt P49354+P49356); experiment: In vitro inhibitory activity for Ras farnesyl transferase, K-Ras substrate; format: biochemical
T2 construct: made in house

Ras farnesyl transferase [3] = molecular target: T1, Ras farnesyl transferase; experiment: In vivo (cellular) inhibitory activity for Ras farnesyl transferase, Rat2 cell line transformed with fused protein of H-Ras substituted with polybasic lysine domain at C-terminus of K-Ras; format: cell-based
Procedure, shortened: as §1

Ras farnesyl transferase [4] = molecular target: T2, Ras farnesyl transferase; experiment: In vitro inhibitory activity for Ras farnesyl transferase, H-Ras substrate; format: biochemical
[5] = Rat2 cell line expressing C-Harvey-Ras, concentration inhibiting 50% of farnesyl bonding of Ras protein, read-out: H-Ras CIC50
[6] = in vitro farnesyl transferase assay, K-Ras, read-out: K-Ras IC50
[7] = Rat2 cell line transformed with H-Ras fused with polybasic lysine domain of K-Ras C-terminus, concentration inhibiting 50% of farnesyl bonding, read-out: K-Ras CIC50
[8] = recombinant farnesyl transferase 4.5 nM, Ras substrate protein 1.5 μM, tritium-farnesylpyrophosphate 0.15 μM, 30 minutes at 37° C., read-out: H-Ras IC50

Row | Compound | pIC50 (Ras farnesyl transferase [1]) | pIC50 (Ras farnesyl transferase [2]) | pIC50 (Ras farnesyl transferase [3]) | pIC50 (Ras farnesyl transferase [4]) | pIC50 (Ras farnesyl transferase [1]; [5]) | pIC50 (Ras farnesyl transferase [2]; [6]) | pIC50 (Ras farnesyl transferase [3]; [7]) | pIC50 (Ras farnesyl transferase [4]; [8])
1 | O=C(c1cn(Cc2c[nH]cn2)cc1-c1cccc2ccccc12)c1cccc2ccccc12 [Compound 69] | 4.30 to 6.00 | 5.00 to 7.00 | 4.00 to 5.00 | 6.26 |  |  |  | 
2 | Cc1ccc(C(=O)c2cn(Cc3c[nH]cn3)cc2-c2cn(C)c3ccccc23)cc1 [Compound 70] |  |  |  |  | 4.30 to 6.00 | 5.00 to 7.00 | 4.00 to 5.00 | 6.68
3 | CCCCc1c(-c2cccc3ccccc23)c(C(=O)c2ccc(Cl)cc2Cl)cn1Cc1c[nH]cn1 [Compound 71] |  |  |  |  | 4.30 to 6.00 | 5.00 to 7.00 | 4.00 to 5.00 | 6.92
4 | O=C(c1ccc(Cl)cc1Cl)c1cn(Cc2c[nH]cn2)c(Cc2ccccc2)c1-c1cccc2ccccc12 [Compound 72] |  |  |  |  | 4.30 to 6.00 | 5.00 to 7.00 | 4.00 to 5.00 | 7.30
5 | N#Cc1ccc(Cn2cncc2Cn2cc(C(=O)c3cccs3)c(-c3cccc4ccccc34)c2)cc1 [Compound 73, 1-[1-(4-Cyanobenzyl)-1H-imidazol-5-yl]methyl-4-(naphthalen-1-yl)-3-(thiophen-2-yl)carbonyl-1H-pyrrole] |  |  |  |  | 6.70 | 7.70 | < 5.00 | 8.70
6 | N#Cc1ccc(Cn2cncc2Cn2cc(C(=O)c3ccsc3)c(-c3cccc4ccccc34)c2)cc1 [Compound 74] |  |  |  |  | 6.00 to 7.00 | 7.00 to 8.00 | 4.00 to 5.00 | 8.00
7 | N#Cc1ccc(Cn2cncc2Cn2cc(C(=O)c3cccc(Br)c3)c(-c3cccc4ccccc34)c2)cc1 [Compound 76] |  |  |  |  | 6.00 to 7.00 | 5.00 to 7.00 | 4.00 to 5.00 | 8.40
8 | Cn1cnc(Cn2cc(C(=O)c3ccc(F)cc3)c(-c3cccc4ccccc34)c2)c1 [Compound 78, 3-(4-Fluorobenzoyl)-1-(1-methyl-1H-imidazol-4-yl)methyl-4-(naphthalen-1-yl)-1H-pyrrole] |  |  |  |  | 7.00 | 6.70 | 4.00 to 5.00 | 8.35
9 | Cn1cnc(Cn2cc(C(=O)c3ccc(Oc4ccccc4)cc3)c(-c3cccc4ccccc34)c2)c1 [Compound 79, 1-(1-Methyl-1H-imidazol-4-yl)methyl-4-(naphthalen-1-yl)-3-(4-phenoxybenzoyl)-1H-pyrrole] |  |  |  |  | 7.00 | 7.00 | < 4.30 | 8.30
10 | COC(=O)[C@H](CCSC)NC(=O)c1cn(Cc2c[nH]cn2)cc1-c1cccc2ccccc12 [Compound 80, (S)-1-(1H-Imidazol-4-yl)methyl-3-[N-(1-methoxycarbonyl-3-methylthio)propyl]carbamoyl-4-(naphthalen-1-yl)-1H-pyrrole] |  |  |  |  | 4.30 to 6.00 | 5.00 to 7.00 | 4.00 to 5.00 | 5.09
11 | CSCC[C@H](NC(=O)c1cn(Cc2c[nH]cn2)cc1-c1cccc2ccccc12)C(=O)O [Compound 81, (S)-3-[N-(1-Hydroxycarbonyl-3-methylthio)propyl]carbamoyl-1-(1H-imidazol-4-yl)methyl-4-(naphthalen-1-yl)-1H-pyrrole] |  |  |  |  | 4.30 to 6.00 | 5.00 to 7.00 | 4.00 to 5.00 | 6.17
12 | O=C(Nc1ccccc1)c1cn(Cc2c[nH]cn2)cc1-c1cccc2ccccc12 [Compound 82] |  |  |  |  | 4.30 to 6.00 | 5.00 to 7.00 | 4.00 to 5.00 | 6.40
13 | O=C(NCc1ccccc1)c1cn(Cc2c[nH]cn2)cc1-c1cccc2ccccc12 [Compound 83] |  |  |  |  | 4.30 to 6.00 | 4.73 | 4.00 to 5.00 | 6.59
14 | O=C(c1cn(Cc2c[nH]cn2)cc1-c1cccc2ccccc12)N1CCCCC1 [Compound 84] |  |  |  |  | 4.30 to 6.00 | 5.74 | 4.00 to 5.00 | 6.14
15 | O=C(c1cn(Cc2c[nH]cn2)cc1-c1cccc2ccccc12)N1CCOCC1 [Compound 85] |  |  |  |  | 5.40 | 5.00 to 7.00 | < 4.30 | 7.52
16 | O=C(c1cn(Cc2c[nH]cn2)cc1-c1cccc2ccccc12)N1CCSCC1 [Compound 86] |  |  |  |  | 5.70 | 5.00 to 7.00 | < 4.30 | 7.52
